# In patent US20260137707A1, “METHODS OF MODULATING ATXN2 EXPRESSION” (University of Utah Research Foundation, priority 2022, published 2026):
# Counter-ions that a name gives are not always drawn. Like-named read-outs stand apart in the source and are kept apart here.
# What was measured:
# ATXN2-luc [1] = conditions: H2 cells
# ATXN2-luc [2] = conditions: average ATXN2-luc response of H2 and S1 cells
# in vitro = conditions: human
# Method: (§1) Compounds were plated at 2× concentrations in 25 μl in 384 well plates with each compound dose plated in triplicate. An equal volume of S2, H2, or SC cells (24,000 cells/well) suspended in phenol-red free Dulbecco's Modified Eagle Medium (DMEM) with 10% fetal bovine serum and 1× penicillin/streptomycin were added. Cells were grown 24 hrs then assayed first by using the CellTiter-Fluor reagent (20 μl) followed by the addition of Bright-Glo ([…]) luciferase assay, using a multimode plate reader (Beckman DT880). Values were reported as the mean±standard deviation (SD) with n=3. IC50s were determined by the Hill coefficient method using an online tool (https://www.aatbio.com/tools/ic50-calculator).
# (§2) These 46 compounds were retested at 12 doses and a zero-compound dose, in multiplexed assays in 96-well plates using CellTiter-Fluor to determine cell viability, then Bright-Glo to determine luciferase expression. The values for H2 and S2 were used as replicates to calculate IC50s and to assess cell viability.
# (§3) For CMV-luc and viability charts, the fitted lines are second-order polynomials. Means and SD are shown.
# ATXN2-luc [3] = test: Secondary assays, Bright-Glo luciferase in H2 and S2 cells; assay type: cell-based
# Method: as §1, §2, §3
# CMV-luc = test: Secondary assays, Bright-Glo luciferase in SC cells; assay type: cell-based; conditions: minimum CMV-luc luciferase in SC cells over 12 doses
# Method: as §1, §3
# ATXN2-luc [4] = test: cells; conditions: for activity at 10 µM: read-out: Luc at 10 μm; for activity at 1 µM: read-out: Luc at 1 μm
# [5] = Table 1, 24 hrs, single 10 μM dose, Z-score of luciferase
Molecule,SD from Mean (ATXN2-luc [1]; [5]) [SD],"SD from Mean (ATXN2-luc [1]; Table 5S, pilot screen, 10 μM) [SD]",Luc at 1 μm (ATXN2-luc [2]),Luc at 10 μm (ATXN2-luc [2]),activity at 10 µM (ATXN2-luc [4]) [%],further results
CO[C@H]1[C@@H](O)[C@@H](C)O[C@@H](O[C@H]2CC[C@]3(C)[C@H]4CC[C@]5(C)[C@@H](C6=CC(=O)OC6)CC[C@]5(O)[C@@H]4CC[C@]3(O)C2)[C@@H]1O [EMICYMARIN],−3.080,−3.080,115,31,,
CN(C)CCN1C(=O)c2cccc3cc(N)cc(c23)C1=O [Amonafide],,,,,,viability at 24 h (in vitro): 68.2%
CC[C@H]1CN2CCc3cc(OC)c(OC)cc3[C@@H]2C[C@@H]1C[C@H]1NCCc2cc(O)c(OC)cc21.Cl.Cl.O.O.O.O.O.O.O [Cephaeline dihydrochloride heptahydrate],−4.055,−4.055,16,17,,
Nc1ccc(-c2ccc3ncc4ccc(=O)n(-c5cccc(C(F)(F)F)c5)c4c3c2)cn1 [Torin2],,,,,,"IC50 (ATXN2-luc [3]; ATXN2-luc, Bright-Glo, H2 and S2 values used as replicates, 12 doses, 96-well plates, read-out: Mean IC50): 257 nM; min ATXN2-luc (ATXN2-luc [3]; minimum ATXN2-luc luciferase over 12 doses, H2 and S2 cells): 25.42%; min SC luc (CMV-luc): 128.4%"
O=c1[nH]c(=O)n([C@H]2C[C@H](O)[C@@H](CO)O2)cc1F [Floxuridine],,,,,,viability at 24 h (in vitro): 97.9%
CS(=O)(=O)Nc1ccc(Cc2noc(-c3ccc4[nH]cc(CCN)c4c3)n2)cc1 [L-694 247],−3.156,−3.156,110,6,,
STROPH[…] LACTONE ACETATE,−3.855,−3.855,37,20,,
CCCCCCCCCOc1ccc2[nH]cc(CCN)c2c1 [ChemBridge ID# 5629242],−3.609,,110,58,,
Cyanocobalamin,−2.681,−2.681,110,140,,
COc1ccc(CN2CCN(C(c3ccc(F)cc3)c3ccc(F)cc3)CC2)c(OC)c1OC [LOMERIZINE DiHCl],−2.782,−2.782,102,,55,
C[n+]1cc2c3c(ccc2c2ccc4cc5c(cc4c21)OCO5)OCO3 [Sanguinarine],−2.689,−2.689,127,,160,
C/C1=C2/[N-][C@H]([C@H](CC(N)=O)[C@@]2(C)CCC(=O)NC[C@@H](C)OP(=O)([O-])O[C@H]2[C@@H](O)[C@@H](n3cnc4cc(C)c(C)cc43)O[C@@H]2CO)[C@]2(C)N=C(/C(C)=C3N=C(/C=C4N=C1[C@@H](CCC(N)=O)C\4(C)C)[C@@H](CCC(N)=O)[C@]\3(C)CC(N)=O)[C@@H](CCC(N)=O)[C@]2(C)CC(N)=O.[Co] [COBALAMINE],−5.111,−5.111,126,109,,
CC(=O)O[C@H]1C[C@H](O[C@H]2[C@@H](O)C[C@H](O[C@H]3[C@@H](O)C[C@H](O[C@H]4CC[C@@]5(C)[C@H](CC[C@@H]6[C@@H]5C[C@@H](O)[C@]5(C)[C@@H](C7=CC(=O)OC7)CC[C@]65O)C4)O[C@@H]3C)O[C@@H]2C)O[C@H](C)[C@H]1O[C@@H]1O[C@H](CO)[C@@H](O)[C@H](O)[C@H]1O [LANATOSIDE C],−4.323,−4.323,39,15,,"SD from Mean (ATXN2-luc [1]; Table 1, 24 hrs, single 10 μM dose, Z-score of luciferase, listed as Lanatoside C): −3.629 SD; SD from Mean (ATXN2-luc [1]; Table 5S, pilot screen, 10 μM, listed as Lanatoside C): −3.629 SD"
CC(C)c1cc(C(=O)N2Cc3ccc(CN4CCN(C)CC4)cc3C2)c(O)cc1O [Onalespib (AT-13387AU)],,,,,,viability at 24 h (in vitro): 90.6%
C1CCC(N=C(NC23CC4CC(CC(C4)C2)C3)N2CCOCC2)CC1.Cl [U-37883A],−4.965,−4.965,94,17,,
CC(=O)Oc1cccc(O)c1 [RESORCINOL MONOACETATE],−6.242,−6.242,,,5,activity at 1 µM (ATXN2-luc [4]): 120%
COc1cccc(C2(O)CCCCC2CN(C)C)c1 (stereo not drawn) [Tramadol],−3.415,,,,134,
CO[C@H]1C[C@H](O[C@H]2CC[C@]3(C)[C@H]4CC[C@]5(C)[C@@H](C6=CC(=O)OC6)CC[C@]5(O)[C@@H]4CC[C@]3(O)C2)O[C@H](C)[C@H]1O [PERIPLOCYMARIN],−2.759,,,,17,activity at 1 µM (ATXN2-luc [4]): 75%
CCN(CC)CCCCCCCCOC(=O)c1cc(OC)c(OC)c(OC)c1 [TMB-8],−5.740,−5.740,66,53,,
COC(=O)C1=C(C)NC(C)=C(C(=O)OCCN(C)Cc2ccccc2)C1c1cccc([N+](=O)[O-])c1 (stereo not drawn) [NICARDIPINE],−2.782,−2.782,112,,61,
C[C@H]1O[C@@H](O[C@H]2[C@@H](O)C[C@H](O[C@H]3[C@@H](O)C[C@H](O[C@H]4CC[C@@]5(C)[C@H](CC[C@@H]6[C@@H]5CC[C@]5(C)[C@@H](C7=CC(=O)OC7)CC[C@]65O)C4)O[C@@H]3C)O[C@@H]2C)C[C@H](O)[C@@H]1O [DIGITOXIN],−4.100,−4.100,,,19,activity at 1 µM (ATXN2-luc [4]): 27%
CC(=O)O[C@H]1CC[C@@]2(C)[C@H](CC[C@@H]3[C@@H]2CC[C@]2(C)[C@@H](C4=CC(=O)OC4)[C@@H](OC(C)=O)C[C@]32O)C1 [GITOXIGENIN DIACETATE],−4.261,−4.261,,,21,activity at 1 µM (ATXN2-luc [4]): 27%
CO[C@H]1[C@H](O)[C@H](O[C@H]2CC[C@@]3(C)[C@H](CC[C@@H]4[C@@H]3CC[C@]3(C)[C@@H](C5=CC(=O)OC5)CC[C@]43O)C2)O[C@@H](C)[C@@H]1O [NERIIFOLIN],−3.045,,,,17,activity at 1 µM (ATXN2-luc [4]): 17%
C[C@]12CC[C@H]3[C@@H](CC[C@]4(O)C[C@@H](O)CC[C@]34C=O)[C@@]1(O)CC[C@@H]2C1=CC(=O)OC1 [STROPHANTHIDIN],,−4.451,,,15,activity at 1 µM (ATXN2-luc [4]): 16%
[H]/N=C(/NCCCCC)N/N=C/c1c[nH]c2ccc(OC)cc12 [TEGASEROD MALEATE],−3.606,,,,8,
O=c1[nH]c(=O)n([C@H]2C[C@H](O)[C@@H](CO)O2)cc1C(F)(F)F [Trifluridine],−5.158,−5.158,,,71,
C[C@H]1O[C@@H](O[C@H]2[C@@H](O)C[C@H](O[C@H]3[C@@H](O)C[C@H](O[C@H]4CC[C@@]5(C)[C@H](CC[C@@H]6[C@@H]5CC[C@]5(C)[C@@H](C7=CC(=O)OC7)[C@@H](O)C[C@]65O)C4)O[C@@H]3C)O[C@@H]2C)C[C@H](O)[C@@H]1O [GITOXIN],−4.086,−4.086,,,12,activity at 1 µM (ATXN2-luc [4]): 21%
CC(C)c1cc(/C=C(\C#N)C(=O)NCCCc2ccccc2)cc(C(C)C)c1O [SU1498],−4.885,−4.885,22,15,,
CC[C@H]1CN2CCc3cc(OC)c(OC)cc3[C@@H]2C[C@@H]1C[C@H]1NCCc2cc(OC)c(OC)cc21 [Emetine dihydrochloride],−4.840,−4.840,,,19,activity at 1 µM (ATXN2-luc [4]): 18%
